Paper PMC8466854, “Molecular Determinant of DIDS Analogs Targeting RAD51 Activity” (Molecules, 2021)
Like-named read-outs stand apart in the source and are kept apart here.

Assays:
RAD51 [1] = biological target: T1, RAD51 (Homo sapiens, UniProt Q06609); test: D-loop assay (RAD51-mediated D-loop formation); assay type: biochemical; details: for Effect on D-loop structure formation: increasing concentration until 100 µM
T1 construct: His; made in house; host or cells: Escherichia coli BL21-DE3
T1 sequence (Q06609 1-339): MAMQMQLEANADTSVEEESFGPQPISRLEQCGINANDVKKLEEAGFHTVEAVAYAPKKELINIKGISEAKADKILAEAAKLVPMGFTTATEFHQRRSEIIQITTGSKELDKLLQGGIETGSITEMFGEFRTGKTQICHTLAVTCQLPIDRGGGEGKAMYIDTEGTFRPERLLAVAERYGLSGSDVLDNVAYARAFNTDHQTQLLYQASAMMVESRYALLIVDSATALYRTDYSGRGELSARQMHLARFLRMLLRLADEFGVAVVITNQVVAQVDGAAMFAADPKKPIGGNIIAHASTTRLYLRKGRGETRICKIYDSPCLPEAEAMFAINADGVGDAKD
Procedure: Firstly, we incubated RAD51 with increasing concentrations of DIDS (from 1 to 100 µM) and then we calculated the percent of D-loop by quantifying the shifted band in comparison to the control condition in absence of DIDS (Figure 2A).
(A) D-loop structures in presence of increasing concentration of DIDS analogs (5, 25, 50, 145, and 100 µM) were separated and visualized on agarose gel. Last lane corresponds to the control condition without DIDS-derived molecule. (B) After quantification of signal intensity of shifted band corresponding to D-loop structure, the percent of D-loop is calculated in comparison to the condition in absence of drug and presented in relation to the increasing concentration (from 1 to 100 µM) of each small molecule. Three independent experiments were performed and each error bar represents s.d. statistical analysis.
An IRD700 100 bp ssDNA probe (Integrated DNA Technologies, Leuven, Belgium) is used to assess D-loop formation activity of RAD51. Reactional buffer is prepared (25 mM Tris-HCl pH7.5; 1 mM DTT; 1 mM ATP; 1 mM CaCl2; qsp water) in the presence of 1 µM ssDNA probe. RAD51 is then added to the reaction, and the mixture is incubated for 5 min at 37 °C. Plasmid DNA (3 mM) is next added to the reaction for a final volume of 10 µL and incubated at 37 °C for 15 min. Reaction is deproteinized by adding stop buffer (20 mM Tris-HCl pH7.5; 5 mg/mL proteinase K; qsp water) and the mixture is incubated for 20 min at 37 °C.

RAD51 nucleofilament = biological target: T2, RAD51 nucleofilament (Homo sapiens, UniProt Q06609); test: DNA binding assay by bio-layer interferometry (BLItz), drug added after RAD51 is bound to ssDNA: nucleofilament dissociation; details: drug added at 40 µM after association of RAD51 with ssDNA
T2 construct: His; made in house; host or cells: Escherichia coli BL21-DE3
T2 sequence (Q06609 1-339): T1 sequence (Q06609 1-339)
Procedure: (§1) Figure 3 DIDS derivatives modulate the RAD51 nucleofilament formation. The association and dissociation between RAD51 and ssDNA were evaluated by Blitz interferometry. RAD51 (2 µM) was pre-incubated in phosphate buffer in absence or presence of each molecule at different concentrations before the measurement. The association phase followed until 50 s while the dissociation phase was monitored until 80 or 90 s, as indicated in graphs. (A) Effect of DIDS family on the ssDNA-RAD51 association was evaluated at 40 µM concentration of each molecule including DIDS, DADS, DAZDS, DNDS, and SITS. (B) DIDS, (C) DAZDS, and (D) SITS were incubated with RAD51 at increasing concentrations of 2, 10, and 20 µM for 5 min before the measurement by BLItz approach. (E) The percent of nucleofilament formation in presence of stilbene molecule was calculated in comparison to the condition in absence of drug after 50 s. This percentage was presented in function to the increasing concentration (from 2 to 20 µM) of each small molecule. (F) RAD51 associates with ssDNA until 50 s, and then each molecule is added at 40 µM as indicated by the narrow in the graph.
To this purpose, we incubated RAD51 with ssDNA, then we added the drug, and we measured the dissociation kinetic of RAD51 nucleofilament (Figure 3F).
(§2) PolydT DNA (1 µM) is biotinylated to allow its binding to the streptavidin-coated biosensor. Two methods of evaluation are used: the former by pre-incubating RAD51 with the drug to test and the latter by adding the drug after RAD51 is bound to DNA. In the first case, 2 µM RAD51 is incubated with the drug for […] on ice, then RAD51-ssDNA binding measurement is performed (baseline phase: 10 s; association phase: 40 s; dissociation phase: 30 s). In the second case, RAD51-ssDNA binding is analyzed, and after the association phase, the drug is added to the reaction and dissociation effect is measured (baseline phase: 10 s; association phase: 50 s; dissociation phase: 40 s). For the two cases, reaction buffer is composed of Phosphate Buffer saline (PBS) and 1 mM ATP. The tip is regenerated with 50 mM NaOH during 40 s before reuse. Measures are realized on a BLItz device from ForteBio.

RAD51 [2] = biological target: T1, RAD51; test: RAD51 self-association by BS3 chemical cross-linking; assay type: biochemical; details: 50 µM of drug; for Effect on oligomer/monomer migration profile (self-association of RAD51): RAD51 8.5 µM, BS3 cross-link, SDS-PAGE; for Decrease of polymerization rate (oligomer/monomer form intensity ratio): three independent experiments
Description: The mechanism of action of these DIDS analogs molecules remains unclear, but they probably act on the protein–protein interaction site of RAD51. In order to assess their possible effect on the subunit–subunit RAD51 association, we investigated the oligomerization level of RAD51 in presence of these small molecules. By using BS3 cross-linker, we fixed the quaternary structure of RAD51 in absence or in presence of the five stilbene molecules. Oligomer and monomer forms were separated on SDS-PAGE and stained with Coomassie blue (Figure 4A). Oligomer forms include dimer, trimer, and high polymer while monomer form is well separated at 37 kDa.
Figure 4 Self-association of RAD51 is inhibited in the presence of DIDS, SITS, and DAZDS. (A) The polymerization of RAD51 was estimated by cross-link approach (see Material and Method section). (B) Oligomer and monomer forms ratio is presented as a histogram graph. Three independent experiments were performed and statistical analysis was performed using paired Student’s t-test. Statistical significance was assumed at ** p < 0.01, *** p < 0.001. Each error bar represents s.d. statistical analysis.
RAD51 at 8.5 µM was incubated with the indicated concentrations of chemical compounds for 5 min at room temperature in a buffer containing 20 mM sodium phosphate, 50 mM azidol, 1 mM MgCl2, and 1 mM ATP. The protein was cross-linked with 4.2 µM of BS3 (bis(sulfosuccinimidyl)suberate, Sigma) at room temperature for 30 min. Then the reaction was stopped by addition of Tris-HCl pH 8.1 at final concentration 33 mM for 15 min at room temperature. The sample was separated by SDS-PAGE at 10% and analyzed by Western blotting. Anti-RAD51 rabbit antibody was used as primary antibody (Sigma-Aldrich Cat# SAB2101936, RRID:AB_10607384), then secondary anti-rabbit antibody conjugated to alexafluor 680 (GAR 700: Molecular Probes Cat# A-21076, RRID:AB_2535736) was used for the detection. The quantification of monomer and cross-linked oligomers was performed by an Odyssey infrared imaging system scanner (LI-COR, Biosciences, Lincoln, NE, USA).

RAD51 [3] = biological target: T1, RAD51; test: DNA binding assay by bio-layer interferometry (BLItz), RAD51 pre-incubated with drug: ssDNA-RAD51 association / nucleofilament formation; details: for inhibition at 20 µM: read-out: Inhibition of the association of RAD51 with ssDNA (reduction of nucleofilament formation); for Effect on ssDNA-RAD51 association: RAD51 2 µM pre-incubated with drug, 40 µM of each molecule (Figure 3A)
Procedure: We have evaluated the steps preceding D-loop formation, namely the formation of the nucleofilament of RAD51. We investigated the effect of DIDS and its derivatives on ssDNA binding and the nucleofilament formation functions of RAD51 by bio-layer interferometry. Two approaches were undertaken: (i) to determine the impact of drugs on RAD51-ssDNA binding and (ii) to evaluate the ability of drugs to dissociate RAD51 nucleofilament. Concerning the first approach, we pre-incubated RAD51 with the drug of interest for 5 min before measuring ssDNA-RAD51 binding efficiency. […] At a concentration of 20 μM, DAZDS inhibits the association of RAD51 with ssDNA by more than 80% (Figure 3C,E), while at the same concentration the SITS slightly reduces the formation of the nucleofilament by about 10–20% (Figure 3D,E).
as §1, §2

[4] = test system: fibroblast and prostatic cancer cells; test: Cytotoxicity (data not shown); assay type: cell-based
[5] = parameters: method as in PMID 18642799; details: aqueous solution ref 30; cited from earlier work
RAD51 [6] = test system: RAD51; parameters: method as in PMID 19336413; details: absence or presence of ATP has no influence ref 20; cited from earlier work
RAD51 foci formation = test system: RAD51 foci formation; parameters: method as in earlier work; details: leukemia cells / B cells ref 21, Muramatsu et al.; cited from earlier work
RAD51 (Homo sapiens) = test: BLI; details: 1 mM ATP, RAD51 pre-incubated with DAZDS 20 uM, BLI (BLItz): PBS, 2 uM RAD51, biotinylated polydT 1 uM on streptavidin sensor, drug pre-incubation 10 min on ice (Methods; 5 min in Results), assay …
[7] = D-loop formation by RAD51, 1 to 100 µM of each molecule, three independent experiments, read-out: IC50 determination from D-loop data

Compound: Nc1ccc(C=Cc2ccc(N)cc2S(=O)(=O)O)c(S(=O)(=O)O)c1 [DADS, 4,4′-diaminostilbene-2,2′-disulfonic acid]
- IC50 (RAD51 [1]; [7]): > 100 µM
- Effect on D-loop structure formation (RAD51 [1]): no effect
- Effect on nucleofilament stability (dissociation of RAD51 nucleofilament) (RAD51 nucleofilament): not able to dissociate the nucleofilament
- Effect on oligomer/monomer migration profile (self-association of RAD51) (RAD51 [2]): no effect on the self-association of RAD51
- Decrease of polymerization rate (oligomer/monomer form intensity ratio) (RAD51 [2]): no effect

Compound: [N-]=[N+]=Nc1ccc(C=Cc2ccc(N=[N+]=[N-])cc2S(=O)(=O)O)c(S(=O)(=O)O)c1 [DAZDS, 4,4′-diazidostilbene-2,2′-disulfonic acid]
- IC50 (RAD51 [1]; [7]): 41.3 µM
- Effect on D-loop structure formation (RAD51 [1]): significant inhibitory effect
- inhibition at 20 µM (RAD51 [3]; 20 µM of drug, RAD51 2 µM pre-incubated, after 50 s): > 80%
- Effect on ssDNA-RAD51 association (RAD51 [3]): inhibitory effect
- Effect on nucleofilament stability (dissociation of RAD51 nucleofilament) (RAD51 nucleofilament): totally dissociated the structure
- Effect on oligomer/monomer migration profile (self-association of RAD51) (RAD51 [2]): decrease of oligomer forms in favor of RAD51 monomer
- Decrease of polymerization rate (oligomer/monomer form intensity ratio) (RAD51 [2]): about 40%
- Cytotoxicity ([4]; cells not given, in contrast to DIDS): weak cytotoxicity

Compound: O=S(=O)(O)c1cc(N=C=S)ccc1C=Cc1ccc(N=C=S)cc1S(=O)(=O)O [DIDS, 4,4′-diisothiocyanatostilbene-2,2′-disulfonic acid]
- IC50 (RAD51 [1]; [7]): 0.9 µM
- Effect on D-loop structure formation (RAD51 [1]): inhibits D-loop intermediate structure in a dose-dependent manner
- Effect on ssDNA-RAD51 association (RAD51 [3]): inhibitory effect
- RAD51 nucleofilament formation (RAD51 [3]; from 10 µM of drug, RAD51 2 µM pre-incubated): totally inhibited
- Effect on nucleofilament stability (dissociation of RAD51 nucleofilament) (RAD51 nucleofilament): totally dissociated the structure
- Effect on oligomer/monomer migration profile (self-association of RAD51) (RAD51 [2]): decrease of oligomer forms in favor of RAD51 monomer
- Decrease of polymerization rate (oligomer/monomer form intensity ratio) (RAD51 [2]): about 40%
- Cytotoxicity ([4]; fibroblast and prostatic cancer cells, data not shown): relatively cytotoxic
- Stability in aqueous solution [5]: unstable in aqueous solution
- RAD51 binding to ssDNA or dsDNA in the presence of the drug (RAD51 [6]): unable to bind ssDNA or dsDNA
- RAD51 foci formation (RAD51 foci formation): inhibit RAD51 foci formation

Compound: O=[N+]([O-])c1ccc(C=Cc2ccc([N+](=O)[O-])cc2S(=O)(=O)O)c(S(=O)(=O)O)c1 [DNDS, 4,4′-dinitrostilbene-2,2′-disulfonic acid]
- IC50 (RAD51 [1]): > 100 µM
- Effect on D-loop structure formation (RAD51 [1]): no effect
- IC50 (RAD51 [1]; read-out: IC50 determination from D-loop data, D-loop formation by RAD51, 1 to 100 µM of each molecule, three independent experiments): ≤ 100 µM
- Effect on nucleofilament stability (dissociation of RAD51 nucleofilament) (RAD51 nucleofilament): not able to dissociate the nucleofilament
- Effect on oligomer/monomer migration profile (self-association of RAD51) (RAD51 [2]): no effect on the self-association of RAD51
- Decrease of polymerization rate (oligomer/monomer form intensity ratio) (RAD51 [2]): no effect

Compound: CC(=O)Nc1ccc(C=Cc2ccc(N=C=S)cc2S(=O)(=O)O)c(S(=O)(=O)O)c1 [SITS, 4-acetamido-4′-isothiocyanatostilbene-2,2′-disulfonic acid]
- IC50 (RAD51 [1]): 29 µM
- Effect on D-loop structure formation (RAD51 [1]): significant inhibitory effect
- Effect on ssDNA-RAD51 association (RAD51 [3]): inhibitory effect
- inhibition at 20 µM (RAD51 [3]): 10 to 20%
- Effect on oligomer/monomer migration profile (self-association of RAD51) (RAD51 [2]): decrease of oligomer forms in favor of RAD51 monomer
- Decrease of polymerization rate (oligomer/monomer form intensity ratio) (RAD51 [2]): about 40%

Compound: polydT
- binding signal (% inhibition of association) (RAD51 (Homo sapiens)): > 80
